Here are results for twelve molecules from US5578620A, “Thiazolidine and oxazolidine derivatives, their preparation and their medical use” (Sankyo Company, Limited, priority 1994, dated 1996).

pIC50: −log10 of the molar value.

For this assay, the target named is T1, Bovine lens aldose reductase (Bos taurus, UniProt P16116).
T1 construct: Bovine lens aldose reductase was separated and partially purified; from tissue; host or cells: bovine lens
Briefly: Inhibition of Aldose reductase. Particulars: for inhibition at 5 µg/mL: read-out: Inhibition at 5 μg/ml. Type of assay: biochemical. Here is the method:
Bovine lens aldose reductase was separated and partially purified by the method of S. Hyman and J. H. Kinoshita [J. Biol. Chem., 240, 877 (1965)] and K. Inagaki, I. Miwa and J. Okuda [Arch. Biochem. Biophys., 316, 337 (1982)], and its activity was determined photometrically by the method of Varma et al. [Biochem. Pharmac., 25, 2505 (1976)]. […]

The term pIC50 denotes −log10 of the IC50, conventionally taken in molar units. Take `CC(CSc1ccc(CC2SC(=O)NC2=O)cc1)N1CC(COc2cccc(Cl)c2)OC1=O` (single isomer, unassigned) [10 (less polar), 5-{4-[2-(5-3'-Chlorophenoxymethyl-2-oxooxazolidin-3-yl)propylthio]benzyl}thiazolidine-2,4-dione]: the negative logarithm of the IC50 (pIC50) was 5.40 and the inhibition at 5 µg/mL worked out at 60.1%.

`CC(COc1ccc(CC2SC(=O)NC2=O)cc1)N1CC(COCCCc2ccccc2)OC1=O` (single isomer, unassigned) [24 (less polar), 5-{4-[2-(5-3'-Phenylpropoxymethyl-2-oxooxazolidin-3-yl)propoxy]benzyl}thiazolidine-2,4-dione]: the pIC50 is 5.71 and the inhibition at 5 µg/mL amounted to 71.7%.

Consider `CC(COc1ccc(CC2SC(=O)NC2=O)cc1)N1CC(COCCCCc2ccccc2)OC1=O` (single isomer, unassigned) [25 (less polar), 5-{4-[2-(5-4'-Phenylbutoxymethyl-2-oxooxazolidin-3-yl)propoxy]benzyl}thiazolidine-2,4-dione], for which the pIC50 was 5.41 and the inhibition at 5 µg/mL worked out at 57.1%.

Take `CCC(COc1ccc(CC2SC(=O)NC2=O)cc1)N1CC(COc2cccc(Cl)c2)OC1=O` (single isomer, unassigned) [47 (less polar), 5-{4-[2-(5-3'-Chlorophenoxymethyl-2-oxooxazolidin-3-yl)butoxy]benzyl}thiazolidine-2,4-dione]: the pIC50 was 5.50 and the inhibition at 5 µg/mL was found to be 57.6%.

For `CC(CSc1ccc(CC2SC(=O)NC2=O)cc1)N1CC(COc2cccc(Cl)c2)OC1=O` (stereo not drawn) [10 (polar), 5-{4-[2-(5-3'-Chlorophenoxymethyl-2-oxooxazolidin-3-yl)propylthio]benzyl}thiazolidine-2,4-dione], the pIC50 was 6.10 and the inhibition at 5 µg/mL came to 88.3%.

As to `CC(COc1ccc(CC2SC(=O)NC2=O)cc1)N1CC(COCCCCc2ccccc2)OC1=O` (stereo not drawn) [25 (polar), 5-{4-[2-(5-4'-Phenylbutoxymethyl-2-oxooxazolidin-3-yl)propoxy]benzyl}thiazolidine-2,4-dione], the pIC50 was 6.37 and the inhibition at 5 µg/mL turned out to be 82%.

As for `COc1ccc(OCC2CN(C(C)COc3ccc(CC4SC(=O)NC4=O)cc3)C(=O)O2)cc1` (stereo not drawn) [31 (polar), 5-{4-[2-(5-4'-Methoxyphenoxymethyl-2-oxooxazolidin-3-yl)propoxy]benzyl}thiazolidine-2,4-dione], the negative-log IC50 (pIC50) is 6.06 and the inhibition at 5 µg/mL was determined as 88.1%.

On to `CC(COc1ccc(CC2SC(=O)NC2=O)cc1)NCC(O)COc1cccc(Cl)c1` (stereo not drawn) [Example 2, 5-{4-[2-(3-3'-Chlorophenoxy-2-hydroxypropylamino)propoxy]benzyl}thiazolidine-2,4-dione], for which the pIC50 is 5.22 and the inhibition at 5 µg/mL was 63.2%.

In the case of `CC(COc1ccc(CC2SC(=O)NC2=O)cc1)N1CC(COc2ccccc2)OC1=O` (stereo not drawn) [Example 4, 5-{4-[2-(5-Phenoxymethyl-2-oxooxazolidin-3-yl)propoxy]benzyl}thiazolidine-2,4-dione], the pIC50 was 5.62 and the inhibition at 5 µg/mL stood at 84.5%.

With `CC(COc1ccc(CC2SC(=O)NC2=O)cc1)N1CC(Cc2ccccc2)OC1=O` (stereo not drawn) [Example 8, 5-{4-[2-(5-Benzyl-2-oxooxazolidin-3-yl)propoxy]benzyl}thiazolidine-2,4-dione], the pIC50 is 5.30 and the inhibition at 5 µg/mL was 67.2%.

For the molecule `CC(COc1ccc(CC2SC(=O)NC2=O)cc1)NCC(O)COCCCCCc1ccccc1` (stereo not drawn) [Example 16, 5-{4-[2-(3-5'-Phenylpentyloxy-2-hydroxypropylamino)propoxy]benzyl}thiazolidine-2,4-dione], the pIC50 is 5.18 and the inhibition at 5 µg/mL worked out at 59.2%.

For `CC(COc1ccc(CC2SC(=O)NC2=O)cc1)NCC(O)COCCCCCCCCc1ccccc1` (stereo not drawn) [Example 21, 5-{4-[2-(3-8'-Phenyloctyloxy-2-hydroxypropylamino)propoxy]benzyl}thiazolidine-2,4-dione], the pIC50 is 5.34 and the inhibition at 5 µg/mL is 58.7%.
